{"source": "patent US4461765A", "about": "(Shionogi & Co., Ltd., priority 1979, dated 1984)", "origin": "cited, not measured here", "settings": "co-trimoxazol SMX:TMP 5:1; oral or intravenous administration", "data": [{"smiles": "COc1cc(Cc2cnc(N)nc2N)cc(OC)c1OC", "note": "[TMP, trimethoprim]", "values": [{"measurement": "minimum inhibition concentration in the blood level", "result": 0.6, "unit": "mg/L"}]}]}
